Measurements reported in patent US20250241884A1, “Pharmaceutical Compositions of D10-Docosahexaenoic Acid or Esters Thereof” (BioJiva LLC, priority 2022, published 2025).
“Also recorded” adds a separate entry of the source.

Key:
geographic atrophy = assay: Proposed evaluation of geographic atrophy progression in patients versus placebo (safflower oil); format: in vivo, human
Method: Based on the above experiment, the following provides a proposed evaluation in reduction in the rate of macular degeneration progression in a cohort of patients treated with deuterated docosahexaenoic acid ethyl ester, as compared to a cohort of test patients treated with placebo. Specifically, the treated cohort is administered 250 mg/day of deuterated docosahexaenoic acid ethyl ester or 250 mg/day of safflower oil. The patients are maintained on this dosing regimen throughout the clinical study. Periodic measurements of further geographic atrophy development are obtained.
Dosing is continued for 6 or 12, or 18 or 24 months. At that time, the average extent of geographic atrophy progression is measured for each cohort. The efficacy of the treatment protocol is evaluated by comparing the extent of geographic atrophy progression in a treated population against a placebo population. […]

[1] = tested on: adult male wild-type C57BL/6J mice; assay: Protection against geographic atrophy after intravitreal ferric ammonium citrate in mice fed D-DHA; format: in vivo; details: for protection against geographic atrophy: intravitreal ferric ammonium citrate
Text: In this example, two cohorts of adult male wild-type C57BL/6J mice (Jackson Labs) were used. Both cohorts were fed identical feed containing 0.25% or 0.5% D-DHA or matching amounts of DHA as controls. After 4 weeks, the mice were given an intravitreal injection of 1 microliter of 0.5 millimolar ferric ammonium citrate diluted in 0.9% saline (test) or 1 microliter of 0.9% saline (control). Mice were then continued on their respective diets for 4 weeks after injection in order to evaluate whether D-DHA could protect against geographic atrophy which is related to AMD.

[2] = Predicted steady-state D-DHA substitution and plasma decline without dosing in patients, calculated from Table 2 / FIG. 1; design: species or system human; details: for D-DHA substitution rate at steady-state (% of total DHA): DHA in human diet 130 mg/day
Text: In contrast to controlled experimental diets, naturally occurring DHA is consumed by patients treated with D-DHA which can dilute the relative percentage of administered D-DHA absorbed with the total DHA pool and its final concentration at steady state in blood and eventually in the target tissue such as retina. The data and standard curves referred to above allow for the determination of retinal steady-state active D-DHA concentrations with reasonable accuracy by calculating the D-DHA/total DHA ratio in plasma and/or red blood cells. Table 4 exemplifies this by using a mean daily dietary intake of about 130 mg of DHA per day (which represents the 90th percentile of the mean usual DHA intake by males >51 years of age in the US.
In each case, the first order kinetics evidence that a dose of 250 mg dose of D-DHA will provide for a steady-state ratio of active D-DHA based on the total DHA concentration present, as set forth in Table 4. Extrapolating backwards from the case in Table 4, a dose of at least 130 mg/day of D-DHA should provide a 1:1 ratio of active D-DHA to DHA. That ratio has been shown above to be therapeutic. And a dose of 250 mg of higher should provide a ratio of 1.9:1 or higher which provides a margin for non-compliance as decribed herein above.
Tables 5, 6, and 7 are based on Table 2 and describe the time it takes for plasma D-DHA levels to fall below 50% or below 20% with 5 different daily doses of D-DHA in (i) patients in the 90th percentile of daily intake consuming up to 130 mg DHA (Table 5), (ii) those in the 95th percentile with a daily intake of up to 180 mg DHA (Table 6), and (iii) an example of a patient consuming more than one meal of oily fish per week with up to 260 mg daily DHA intake.

[3] = Daily D-DHA Dose 250 mg, Background DHA/Day 130 mg (90th percentile, US males)
[4] = Daily D-DHA Dose 250 mg, Background DHA/Day 180 mg (95th percentile, US males)
[5] = Daily D-DHA Dose 250 mg, Background DHA/Day 260 mg (>1 meal of oily fish per week)
[6] = Daily D-DHA Dose 500 mg, Background DHA/Day 130 mg (90th percentile, US males)
[7] = Daily D-DHA Dose 500 mg, Background DHA/Day 180 mg (95th percentile, US males)
[8] = Daily D-DHA Dose 500 mg, Background DHA/Day 260 mg (>1 meal of oily fish per week)
[9] = Daily D-DHA Dose 750 mg, Background DHA/Day 130 mg (90th percentile, US males)
[10] = Daily D-DHA Dose 750 mg, Background DHA/Day 180 mg (95th percentile, US males)
[11] = Daily D-DHA Dose 750 mg, Background DHA/Day 260 mg (>1 meal of oily fish per week)
[12] = Daily D-DHA Dose 1000 mg, Background DHA/Day 130 mg (90th percentile, US males)
[13] = Daily D-DHA Dose 1000 mg, Background DHA/Day 180 mg (95th percentile, US males)
[14] = Daily D-DHA Dose 1000 mg, Background DHA/Day 260 mg (>1 meal of oily fish per week)
[15] = Daily D-DHA Dose 1250 mg, Background DHA/Day 130 mg (90th percentile, US males)
[16] = Daily D-DHA Dose 1250 mg, Background DHA/Day 180 mg (95th percentile, US males)
[17] = Daily D-DHA Dose 1250 mg, Background DHA/Day 260 mg (>1 meal of oily fish per week)

SMILES: [2H]C([2H])(/C=C\CC)/C=C\C([2H])([2H])/C=C\C([2H])([2H])/C=C\C([2H])([2H])/C=C\C([2H])([2H])/C=C\CCC(=O)OCC [deuterated docosahexaenoic acid ethyl ester]
- reduction in the rate of disease progression (geographic atrophy progression) (geographic atrophy; cohort of patients, 250 mg/day, 6 or 12 or 18 or 24 months, versus placebo (safflower oil)): statistically significant reduction in the rate of disease progression
- percent reduction in geographic atrophy area [(C/B)×100] (geographic atrophy; cohort of treated patients versus placebo cohort, 6, 12, 18 or 24 months post start of therapy): positive percent reduction in geographic atrophy area that is statistically significant

SMILES: [2H]C([2H])(/C=C\CC)/C=C\C([2H])([2H])/C=C\C([2H])([2H])/C=C\C([2H])([2H])/C=C\C([2H])([2H])/C=C\CCC(=O)O [D-DHA, D-10-docosahexaenoic acid]
- protection against geographic atrophy ([1]; concentration of D-DHA at least 50% of the total DHA in the retina, feed 0.25% or 0.5% D-DHA): fully protected against geographic atrophy
- protection against geographic atrophy ([1]; lower concentrations of D-DHA to DHA (below 50% of total DHA in the retina)): protection was achieved but at reduced rates
- protection / reduction in lipid peroxidation ([1]; ratio of about 1:4 of D-DHA to DHA): the protection is accorded; also recorded: sufficient to provide for therapeutic reduction in lipid peroxidation
- protection / reduction in lipid peroxidation ([1]; ratio of at least about 1:1 D-DHA to DHA): protect is maximal; also recorded: near maximal results are obtained
- D-DHA Substitution Rate [2, 3]: ~66%
- D-DHA/DHA Ratio [2, 3]: 1.92 to 1
- Time to reach 20% in Plasma (0.2:1 D-DHA to DHA Ratio) w/o taking oral D-DHA [2, 3]: ≤ 77 days
- Time to reach ≤50% in Plasma (1:1 D-DHA to DHA Ratio) w/o taking oral D-DHA [2, 3]: ≤ 22 days
- D-DHA Substitution Rate [2, 4]: ~58%
- Days to reach ≤50% in Plasma (1:1 D-DHA to DHA Ratio) w/o taking oral D-DHA [2, 4]: ≤ 11 days
- Time to reach 20% in Plasma (0.2:1 D-DHA to DHA Ratio) w/o taking oral D-DHA [2, 4]: ≤ 66 days
- D-DHA Substitution Rate [2, 5]: ~49%
- Time to reach 20% in Plasma (0.2:1 D-DHA to DHA Ratio) w/o taking oral D-DHA [2, 5]: ≤ 29 days
- D-DHA Substitution Rate [2, 6]: ~79%
- Time to reach 20% in Plasma (0.2:1 D-DHA to DHA Ratio) w/o taking oral D-DHA [2, 6]: ≤ 46 days
- Time to reach ≤50% in Plasma (1:1 D-DHA to DHA Ratio) w/o taking oral D-DHA [2, 6]: ≤ 6 days
- D-DHA Substitution Rate [2, 7]: ~74%
- Days to reach ≤50% in Plasma (1:1 D-DHA to DHA Ratio) w/o taking oral D-DHA [2, 7]: ≤ 35 days
- Time to reach 20% in Plasma (0.2:1 D-DHA to DHA Ratio) w/o taking oral D-DHA [2, 7]: ≤ 90 days
- D-DHA Substitution Rate [2, 8]: ~66%
- Days to reach ≤50% in Plasma (1:1 D-DHA to DHA Ratio) w/o taking oral D-DHA [2, 8]: ≤ 8 days
- Time to reach 20% in Plasma (0.2:1 D-DHA to DHA Ratio) w/o taking oral D-DHA [2, 8]: ≤ 63 days
- D-DHA Substitution Rate [2, 9]: ~85%
- Time to reach 20% in Plasma (0.2:1 D-DHA to DHA Ratio) w/o taking oral D-DHA [2, 9]: ≤ 101 days
- Time to reach ≤50% in Plasma (1:1 D-DHA to DHA Ratio) w/o taking oral D-DHA [2, 9]: ≤ 60 days
- D-DHA Substitution Rate [2, 10]: ~81%
- Days to reach ≤50% in Plasma (1:1 D-DHA to DHA Ratio) w/o taking oral D-DHA [2, 10]: ≤ 49 days
- Time to reach 20% in Plasma (0.2:1 D-DHA to DHA Ratio) w/o taking oral D-DHA [2, 10]: ≤ 104 days
- D-DHA Substitution Rate [2, 11]: ~74%
- Days to reach ≤50% in Plasma (1:1 D-DHA to DHA Ratio) w/o taking oral D-DHA [2, 11]: ≤ 26 days
- Time to reach 20% in Plasma (0.2:1 D-DHA to DHA Ratio) w/o taking oral D-DHA [2, 11]: ≤ 81 days
- D-DHA Substitution Rate [2, 12]: ~88%
- Time to reach 20% in Plasma (0.2:1 D-DHA to DHA Ratio) w/o taking oral D-DHA [2, 12]: ≤ 125 days
- Time to reach ≤50% in Plasma (1:1 D-DHA to DHA Ratio) w/o taking oral D-DHA [2, 12]: ≤ 70 days
- D-DHA Substitution Rate [2, 13]: ~85%
- Days to reach ≤50% in Plasma (1:1 D-DHA to DHA Ratio) w/o taking oral D-DHA [2, 13]: ≤ 59 days
- Time to reach 20% in Plasma (0.2:1 D-DHA to DHA Ratio) w/o taking oral D-DHA [2, 13]: ≤ 114 days
- D-DHA Substitution Rate [2, 14]: ~79%
- Days to reach ≤50% in Plasma (1:1 D-DHA to DHA Ratio) w/o taking oral D-DHA [2, 14]: ≤ 38 days
- Time to reach 20% in Plasma (0.2:1 D-DHA to DHA Ratio) w/o taking oral D-DHA [2, 14]: ≤ 93 days
- D-DHA Substitution Rate [2, 15]: ~91%
- Time to reach 20% in Plasma (0.2:1 D-DHA to DHA Ratio) w/o taking oral D-DHA [2, 15]: ≤ 132 days
- Time to reach ≤50% in Plasma (1:1 D-DHA to DHA Ratio) w/o taking oral D-DHA [2, 15]: ≤ 77 days
- D-DHA Substitution Rate [2, 16]: ~87%
- Days to reach ≤50% in Plasma (1:1 D-DHA to DHA Ratio) w/o taking oral D-DHA [2, 16]: ≤ 67 days
- Time to reach 20% in Plasma (0.2:1 D-DHA to DHA Ratio) w/o taking oral D-DHA [2, 16]: ≤ 121 days
- D-DHA Substitution Rate [2, 17]: ~83%
- Days to reach ≤50% in Plasma (1:1 D-DHA to DHA Ratio) w/o taking oral D-DHA [2, 17]: ≤ 47 days
- Time to reach 20% in Plasma (0.2:1 D-DHA to DHA Ratio) w/o taking oral D-DHA [2, 17]: ≤ 102 days
- D-DHA substitution rate at steady-state (% of total DHA) ([2]; Fixed daily D-DHA dose 250 mg): 66%
- D-DHA substitution rate at steady-state (% of total DHA) ([2]; Fixed daily D-DHA dose 500 mg): 79%
- D-DHA substitution rate at steady-state (% of total DHA) ([2]; Fixed daily D-DHA dose 1000 mg): 88%
- time to reach steady state concentrations of active D-DHA after start of therapy ([2]; plasma, patient): about 14 days
- time to reach steady state concentrations of active D-DHA after start of therapy ([2]; red blood cell, patient): about 45 days
- time to reach steady state concentration of active D-DHA after start of therapy ([2]; skeletal muscle tissue, patient): about 11 weeks
- percent reduction in geographic atrophy [(F/E)×100] (geographic atrophy; individual patient treated with 1,000 mg of D-DHA versus placebo cohort, 6, 12, 18 or 24 months): positive percent reduction in geographic atrophy that is statistically significant
